# The source made the active and inactive calls.
# Assays:
# [1] = target: T1, Protein Tat (Human immunodeficiency virus type 1 group M subtype B (isolate HXB2)(HIV-1), UniProt P04608); format: functional;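 further: tat binding to TAR RNA read out by fluorescence polarization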
# T1 sequence (P04608 whole entry): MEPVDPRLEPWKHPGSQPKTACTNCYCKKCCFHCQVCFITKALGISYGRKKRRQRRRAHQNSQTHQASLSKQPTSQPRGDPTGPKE
# [2] = target: Mitogen-activated protein kinase 10 (Homo sapiens, UniProt P53779); test: Dose response biochemical screening assay for inhibitors of c-Jun N-Terminal Kinase 3 (JNK3). [Related pubchem assays: 746 ]
# [3] = test system: Vero; test: host cell cytotoxicity of antiviral hits, dose response, cytotoxicity control for West Nile virus antiviral project, secondary assay (AID 1650); format: functional; settings: Chlorocebus sabaeus
# [4] = Luminescence Cell-Based Dose Retest to Confirm Inhibitors of Cancer Stem Cells. [Related pubchem assays (depositor defined):AID2717, AID2721]; format: functional; settings: Homo sapiens
# [5] = target: T2, Tyrosine-protein phosphatase non-receptor type 7 (Homo sapiens, UniProt P35236); test: inhibitors of human HePTP phosphatase, […], biochemical, absorbance, leukemia target (AID 521); format: functional
# T2 sequence (P35236 whole entry): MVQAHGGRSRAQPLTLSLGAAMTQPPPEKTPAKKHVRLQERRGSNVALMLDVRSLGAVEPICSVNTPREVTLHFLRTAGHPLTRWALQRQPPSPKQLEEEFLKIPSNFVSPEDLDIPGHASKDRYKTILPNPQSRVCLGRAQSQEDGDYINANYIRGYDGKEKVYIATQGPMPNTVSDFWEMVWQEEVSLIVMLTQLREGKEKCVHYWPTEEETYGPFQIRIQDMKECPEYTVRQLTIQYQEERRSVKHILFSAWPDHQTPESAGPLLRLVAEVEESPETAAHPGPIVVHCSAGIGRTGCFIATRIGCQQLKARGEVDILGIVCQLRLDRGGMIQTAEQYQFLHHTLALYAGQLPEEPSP
# [6] = target: Glyceraldehyde-3-phosphate dehydrogenase (Homo sapiens, UniProt P04406)
# [7] = target: T3, Bcl-2-related protein A1 (Mus musculus, UniProt Q07440); test: Bfl-1 binding inhibitors, SAR follow-up, biochemical, fluorescence polarization (AID 1070)
# T3 sequence (Q07440 whole entry): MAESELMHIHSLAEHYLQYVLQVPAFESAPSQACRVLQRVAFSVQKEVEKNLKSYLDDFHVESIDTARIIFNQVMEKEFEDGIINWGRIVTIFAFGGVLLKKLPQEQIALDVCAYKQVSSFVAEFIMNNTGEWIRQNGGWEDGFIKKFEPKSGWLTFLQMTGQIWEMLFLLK
# [8] = target: T3, Bcl-2-related protein A1; test: Bfl-1 inhibitors blocking BH3 peptide binding, confirmation, biochemical, TR-FRET, mouse Bfl-1 (AID 621);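 further: TR-FRET binding of GST-Bfl-1 to FITC-labelled Bid peptide via terbium antibody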
# [9] = target: T4, Microphthalmia-associated transcription factor (Homo sapiens, UniProt O75030); test: TRPM1 promoter luciferase signal decrease, dose response, MITF inhibitor project, cell-based, SK-MEL-5, cherry-picked, set 3 (AID 493073); format: functional
# T4 sequence (O75030 whole entry): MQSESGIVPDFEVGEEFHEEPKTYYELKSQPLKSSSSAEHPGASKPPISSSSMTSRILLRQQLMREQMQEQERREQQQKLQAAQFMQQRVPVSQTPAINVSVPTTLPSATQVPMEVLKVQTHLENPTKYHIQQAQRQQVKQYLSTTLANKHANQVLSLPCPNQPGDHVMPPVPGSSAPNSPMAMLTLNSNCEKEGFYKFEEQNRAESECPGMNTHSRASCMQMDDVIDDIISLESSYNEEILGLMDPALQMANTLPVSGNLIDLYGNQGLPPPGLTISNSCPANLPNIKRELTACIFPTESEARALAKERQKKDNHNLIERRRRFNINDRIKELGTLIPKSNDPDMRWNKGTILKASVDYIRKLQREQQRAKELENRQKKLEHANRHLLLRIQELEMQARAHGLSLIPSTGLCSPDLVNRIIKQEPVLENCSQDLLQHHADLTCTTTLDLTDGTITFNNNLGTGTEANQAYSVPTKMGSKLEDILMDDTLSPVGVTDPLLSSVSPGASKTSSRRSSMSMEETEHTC
# [10] = target: T5, RNA-editing ligase 1, mitochondrial (Trypanosoma brucei brucei, UniProt P86926); test: TbREL1 ligase inhibitors, dose response, biochemical, fluorescence, Trypanosoma brucei (AID 1117295); format: functional
# T5 sequence (P86926 whole entry): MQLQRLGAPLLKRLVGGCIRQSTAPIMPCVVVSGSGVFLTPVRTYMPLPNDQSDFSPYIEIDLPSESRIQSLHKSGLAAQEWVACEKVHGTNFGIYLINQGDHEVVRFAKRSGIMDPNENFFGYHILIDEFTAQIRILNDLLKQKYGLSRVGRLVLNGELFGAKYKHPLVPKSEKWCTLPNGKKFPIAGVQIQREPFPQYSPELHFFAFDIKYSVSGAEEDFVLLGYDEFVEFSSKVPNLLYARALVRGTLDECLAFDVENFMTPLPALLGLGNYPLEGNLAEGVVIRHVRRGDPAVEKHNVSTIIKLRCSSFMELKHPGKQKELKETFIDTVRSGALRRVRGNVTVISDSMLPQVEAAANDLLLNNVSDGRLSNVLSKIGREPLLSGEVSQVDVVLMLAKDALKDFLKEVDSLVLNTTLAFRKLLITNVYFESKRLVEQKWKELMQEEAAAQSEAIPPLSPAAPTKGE
# [11] = inhibitors of intracellular T. cruzi replication, confirmation, NIH3T3 host cells, beta-gal luminescence (AID 2044); format: functional, cell-based;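 further: intracellular parasites grown in NIH/3T3 mouse fibroblasts as host cells; luminescent beta-galactosidase reporter signal from transgenic T. cruzi replicating inside host cells; inhibitors lower the luminescence signal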
# [12] = cytotoxicity toward NIH3T3 fibroblasts, dose response, counter-screen, cell-based, ATP luminescence, mouse fibroblasts (AID 2010); format: functional;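 further: cells exposed to compound for about 90 hours before reading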
# [13] = cells
# [14] = C. albicans growth with fluconazole, confirmation, fluorescence, retest (AID 2467); format: functional, cell-based
# [15] = target: T6, Epstein-Barr nuclear antigen 1 (Epstein-Barr virus (strain B95-8) (HHV-4) (Human herpesvirus 4), UniProt P03211); test: EBNA-1 inhibitors, dose response, biochemical, fluorescence polarization, 1536-well (AID 2381); set-up: species or system human gammaherpesvirus 4;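 further: fluorescence polarization of a Cy5 DNA probe bound by EBNA-1 protein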
# T6 sequence (P03211 whole entry): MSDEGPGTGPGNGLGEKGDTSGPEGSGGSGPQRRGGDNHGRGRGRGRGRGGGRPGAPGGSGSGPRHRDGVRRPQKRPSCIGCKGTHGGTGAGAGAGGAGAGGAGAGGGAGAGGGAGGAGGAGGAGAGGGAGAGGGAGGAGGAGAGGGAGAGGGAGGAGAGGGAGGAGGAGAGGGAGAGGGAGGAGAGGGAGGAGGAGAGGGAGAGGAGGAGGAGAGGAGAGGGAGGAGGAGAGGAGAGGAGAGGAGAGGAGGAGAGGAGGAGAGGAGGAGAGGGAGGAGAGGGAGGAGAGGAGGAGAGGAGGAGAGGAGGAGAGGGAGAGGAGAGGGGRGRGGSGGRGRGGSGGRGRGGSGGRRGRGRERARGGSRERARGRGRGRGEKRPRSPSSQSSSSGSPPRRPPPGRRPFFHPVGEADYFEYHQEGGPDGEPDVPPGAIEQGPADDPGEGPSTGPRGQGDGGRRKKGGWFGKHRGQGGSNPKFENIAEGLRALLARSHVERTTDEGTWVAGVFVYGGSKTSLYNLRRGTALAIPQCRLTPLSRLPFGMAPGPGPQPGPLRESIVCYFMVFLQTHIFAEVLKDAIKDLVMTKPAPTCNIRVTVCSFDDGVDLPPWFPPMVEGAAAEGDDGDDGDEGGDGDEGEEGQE
# [16] = target: T7, Lytic switch protein BZLF1 (Epstein-Barr virus (strain B95-8) (HHV-4) (Human herpesvirus 4), UniProt P03206); test: EBV ZTA inhibitors, dose response, counter-screen for EBNA-1 inhibitor project, biochemical, fluorescence polarization, Epstein-Barr virus, 1536-well (AID 2377); set-up: species or system human gammaherpesvirus 4;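 further: fluorescence polarization of Cy5-labelled ZRE DNA probe bound by purified Zta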
# T7 sequence (P03206 whole entry): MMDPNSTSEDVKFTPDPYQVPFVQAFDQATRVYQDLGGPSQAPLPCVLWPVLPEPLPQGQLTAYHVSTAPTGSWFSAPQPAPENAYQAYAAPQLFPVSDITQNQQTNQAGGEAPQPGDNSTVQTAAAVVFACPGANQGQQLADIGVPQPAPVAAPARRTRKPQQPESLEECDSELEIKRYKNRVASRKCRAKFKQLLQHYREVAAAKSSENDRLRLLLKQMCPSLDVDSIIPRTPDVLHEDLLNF
# [17] = NIH-3T3 fibroblast cytotoxicity, dose response, cytotoxicity control, cell-based, fluorescence, Alamar Blue, secondary assay (AID 2327); format: functional;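 further: NIH-3T3 mouse fibroblasts cultured with fluconazole at 8 µg/mL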
# [18] = target: T8, Trace amine-associated receptor 1 (Homo sapiens, UniProt Q96RJ0); test: Fluorescence-based cell-based high throughput dose response assay to identify agonists of the human trace amine associated receptor 1 (TAAR1).; format: functional
# T8 sequence (Q96RJ0 whole entry): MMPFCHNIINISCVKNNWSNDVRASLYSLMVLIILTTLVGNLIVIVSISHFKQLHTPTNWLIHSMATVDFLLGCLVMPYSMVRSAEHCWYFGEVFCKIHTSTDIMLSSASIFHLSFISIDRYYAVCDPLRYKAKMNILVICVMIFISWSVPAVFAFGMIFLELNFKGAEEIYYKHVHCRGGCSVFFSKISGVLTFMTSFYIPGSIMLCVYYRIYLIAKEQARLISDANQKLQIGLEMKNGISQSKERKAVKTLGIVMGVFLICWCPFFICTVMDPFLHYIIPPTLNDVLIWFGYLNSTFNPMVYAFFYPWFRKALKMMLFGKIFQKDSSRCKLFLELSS
# [19] = cells; format: functional, cell-based
# [20] = cells; format: functional, cell-based; remark: listed apart in the source
# [21] = target: T9, Mannose-6-phosphate isomerase (Homo sapiens, UniProt P34949); test: human PMI inhibitors, high substrate, primary screen, biochemical, fluorescence intensity, high mannose 6-phosphate (AID 1220)
# T9 sequence (P34949 whole entry): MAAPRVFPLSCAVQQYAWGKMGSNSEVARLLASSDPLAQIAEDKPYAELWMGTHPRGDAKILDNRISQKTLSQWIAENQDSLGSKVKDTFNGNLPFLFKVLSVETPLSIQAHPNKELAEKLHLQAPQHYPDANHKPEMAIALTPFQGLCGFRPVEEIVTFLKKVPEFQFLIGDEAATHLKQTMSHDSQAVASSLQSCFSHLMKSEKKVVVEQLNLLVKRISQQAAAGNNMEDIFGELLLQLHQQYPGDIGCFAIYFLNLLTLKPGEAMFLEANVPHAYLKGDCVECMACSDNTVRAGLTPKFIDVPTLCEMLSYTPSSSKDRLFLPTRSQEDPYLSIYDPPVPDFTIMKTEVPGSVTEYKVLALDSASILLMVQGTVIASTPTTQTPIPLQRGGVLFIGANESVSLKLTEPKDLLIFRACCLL
# [22] = target: T8, Trace amine-associated receptor 1; test: Counterscreen for agonists of the human trace amine associated receptor 1 (hTAAR1): Fluorescence-based cell-based high throughput dose response assay to identify hTAAR1 agonist that also desensitize TAAR1 receptor response.; format: functional
# [23] = P. falciparum 3D7-ScDHODH growth inhibitors, dose response, SYBR Green, dry powder samples (AID 1159570); format: functional, cell-based;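 further: parasite growth measured after 72 hours of compound exposure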
# [24] = P. falciparum Dd2 growth inhibitors, dose response, SYBR Green, cherry-picked samples (AID 1159567); format: functional, cell-based
# [25] = P. falciparum Dd2 growth inhibitors, dose response, SYBR Green, dry powder samples (AID 1159566); format: functional, cell-based;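 further: potency for growth inhibition with lower SYBR green DNA signal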
# [26] = P. falciparum ATP4 D1247Y mutant growth inhibitors, dose response, NITD609-resistant line, SYBR Green, dry powder (AID 1159571); format: functional, cell-based;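 further: parasites synchronized at ring stage by sorbitol before testing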
# Glyceraldehyde-3-phosphate dehydrogenase, sequence (P04406 whole entry): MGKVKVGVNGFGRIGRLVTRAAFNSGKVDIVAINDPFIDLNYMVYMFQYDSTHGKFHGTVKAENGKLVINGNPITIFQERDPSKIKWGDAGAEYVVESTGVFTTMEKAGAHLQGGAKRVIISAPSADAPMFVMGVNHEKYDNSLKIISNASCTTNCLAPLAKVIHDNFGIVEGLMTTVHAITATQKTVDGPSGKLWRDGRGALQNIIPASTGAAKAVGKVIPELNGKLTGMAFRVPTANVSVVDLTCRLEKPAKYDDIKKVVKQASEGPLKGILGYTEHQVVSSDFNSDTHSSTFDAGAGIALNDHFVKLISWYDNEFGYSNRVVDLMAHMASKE
# Mitogen-activated protein kinase 10, sequence (P53779 whole entry): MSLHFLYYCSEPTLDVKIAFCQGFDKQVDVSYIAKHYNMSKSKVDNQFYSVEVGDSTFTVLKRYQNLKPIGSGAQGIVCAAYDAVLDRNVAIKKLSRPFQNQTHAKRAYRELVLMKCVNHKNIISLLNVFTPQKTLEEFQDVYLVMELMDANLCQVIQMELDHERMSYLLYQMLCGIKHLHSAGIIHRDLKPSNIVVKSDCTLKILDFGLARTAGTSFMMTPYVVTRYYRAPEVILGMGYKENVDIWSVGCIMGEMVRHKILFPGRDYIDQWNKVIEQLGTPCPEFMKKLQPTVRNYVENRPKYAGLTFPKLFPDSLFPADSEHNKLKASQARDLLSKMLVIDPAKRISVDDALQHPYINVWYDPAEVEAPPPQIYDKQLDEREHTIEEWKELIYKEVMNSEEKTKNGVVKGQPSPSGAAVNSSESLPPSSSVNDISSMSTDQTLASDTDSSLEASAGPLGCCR
structure (smiles),measurement,setting,value
NC(=O)c1c(NC(=O)Cc2cccs2)sc2c1CCC2,IC50,[1],> 100 µM (active)
same,IC50,[2],28.3 µM (not active)
Cc1ccc(NNC(=O)C(O)(c2cccc(C(F)(F)F)c2)c2cccc(C(F)(F)F)c2)cc1,CC50,[3],29.8 µM (active)
same,AC50,[4],1.14 µM (active)
CN(Cc1nc(-c2cccnc2)no1)S(=O)(=O)c1ccc(Br)cc1,IC50,[5],> 100 µM (not active)
O=C1C(Cl)=C(Cl)C(=O)N1c1ccc(Cl)nc1,IC50,[6],> 100 µM (not active)
same,IC50,[7],> 100 µM (not active)
same,IC50,[8],33.8 µM (active)
CC1CCN(C2CC(=O)N(c3ccc(Cl)c(Cl)c3)C2=O)CC1 (centres undefined),IC50,[6],> 100 µM (not active)
same,IC50,[7],> 100 µM (not active)
same,IC50,[8],> 100 µM (not active)
COc1ccc2nc(C)cc(NCc3cccc(C(F)(F)F)c3)c2c1,AC50,[9],18.2 µM (active)
same,IC50,[10],> 96.6 µM (inactive)
Cc1n[nH]c(C)c1S(=O)(=O)N1CCCC(C(=O)Nc2ccc3c(c2)OCCO3)C1 (centres undefined),IC50,[5],> 100 µM (not active)
O=C1C(Cl)=C(N2CCN(c3ccccc3Cl)CC2)C(=O)N1c1ccc(Cl)c(Cl)c1,IC50,[6],> 100 µM (not active)
same,IC50,[7],> 100 µM (not active)
same,IC50,[8],> 100 µM (not active)
CCn1c(SCC(=O)c2ccccc2)nc2sc3c(c2c1=O)CCN(C)C3,EC50,[11],< 0.1 µM (active)
same,EC50,[12],> 60 µM (not active)
same,EC50,[13],0.061 µM (active)
O=C(CSc1nnc(-c2ccc(Br)cc2)o1)Nc1cccc2ccccc12,EC50,[14],> 38 µM (not active)
same,IC50,[15],14.3 µM (not active)
same,IC50,[16],> 111 µM (not active)
same,EC50,[17],> 150 µM (inconclusive)
CC1CCCN(C(=S)SCC(=O)c2cc(Br)cc(Br)c2O)C1 (centres undefined),EC50,[18],0.732 µM (active)
same,EC50,[19],> 29.9 µM (inactive)
same,IC50,[20],> 29.9 µM (inactive)
same,IC50,[21],> 50 µM (not active)
same,IC50,[22],4.68 µM (active)
O=P(O)(CN1CCCCCC1)CN1CCCCCC1,IC50,[1],> 100 µM (active)
C[C@@H]1CN([C@H](C)CO)C(=O)c2cc(NC(=O)Nc3ccc(C(F)(F)F)cc3)ccc2O[C@H]1CN(C)C(=O)Nc1cccc2ccccc12,AC50,[23],1.43 µM (active)
same,AC50,[24],1.68 µM (active)
same,AC50,[25],1.99 µM (active)
same,AC50,[26],2 µM (active)
O=C(c1ccncc1)N1CC(=O)N2[C@H](C1)[C@@H](c1ccc(-c3cccnc3)cc1)[C@@H]2CO,AC50,[23],0.188 µM (active)
same,AC50,[24],< 0.3 µM (active)
same,AC50,[25],0.112 µM (active)
same,AC50,[26],0.161 µM (active)
CN1CCC(N[C@@H](Cc2ccccc2)C(=O)NCC(c2ccccc2)c2ccccc2)(C(=O)NC2CCCCC2)CC1,IC50,[10],> 96.6 µM (inactive)

# Reference: ChEMBL document CHEMBL1201862, “PubChem BioAssay data set” (2004)
